Source: patent US12624034B2, “Non-covalent modifiers of AKT1 and uses thereof” (Terremoto Biosciences, Inc., priority 2023, dated 2026)
pIC50: −log10 of the molar value. Where two headings read alike, the source gives them in different places.

Legend:
[1] = test system: LAPC4 prostate cancer cells, which express the AKT1 E17K allele; assay: Antiproliferative effects in LAPC4 cells (CellTiter Glo, 72 h); type: cell-based; settings: Homo sapiens, LAPC4, 72 h, read-out: LAPC4 proliferation IC50
How it was run: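 Seed 1,000 cells/well in IMDM/12% FBS/1% P/S; add compound dilutions (DMSO); incubate 72 h; read intracellular ATP with CellTiter Glo; fit luminescence to log(inhibitor)-response Hill curve for IC50.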

AKT1 E17K = molecular target: T1, AKT1 E17K (Homo sapiens, UniProt P31749, E17K); assay: Live cell AKT1 E17K target engagement by NanoBRET competitive probe displacement in HEK293 cells; type: binding; settings: 2 h at 37° C.
T1 construct: expressed in transfected cells; host or cells: HEK293
How it was run: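 Transfect HEK293 overnight with kinase-NanoLuc fusion plasmid; add compound series and ~EC50 fluorescent ATP-competitive tracer; incubate 2 h, 37° C; add luciferase substrate and extracellular inhibitor; read 460/600 nm; IC50 by Hill fit of BRET ratio.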

AKT1 WT = molecular target: T2, AKT1 WT (Homo sapiens, UniProt P31749); assay: Live cell AKT1 WT target engagement by NanoBRET competitive probe displacement in HEK293 cells; type: binding; settings: 2 h at 37° C., read-out: AKT1 WT IC50
T2 construct: expressed in transfected cells; host or cells: HEK293

AKT2 = molecular target: T3, AKT2 (Homo sapiens, UniProt P31751); assay: Live cell AKT2 target engagement by NanoBRET competitive probe displacement in HEK293 cells; type: binding; settings: 2 h at 37° C., read-out: AKT2 IC50
T3 construct: expressed in transfected cells; host or cells: HEK293

[2] = NanoBRET live cell target engagement, HEK293 cells
[3] = NanoBRET competitive probe displacement, live HEK293 cells

T1 sequence (P31749 whole entry E17K): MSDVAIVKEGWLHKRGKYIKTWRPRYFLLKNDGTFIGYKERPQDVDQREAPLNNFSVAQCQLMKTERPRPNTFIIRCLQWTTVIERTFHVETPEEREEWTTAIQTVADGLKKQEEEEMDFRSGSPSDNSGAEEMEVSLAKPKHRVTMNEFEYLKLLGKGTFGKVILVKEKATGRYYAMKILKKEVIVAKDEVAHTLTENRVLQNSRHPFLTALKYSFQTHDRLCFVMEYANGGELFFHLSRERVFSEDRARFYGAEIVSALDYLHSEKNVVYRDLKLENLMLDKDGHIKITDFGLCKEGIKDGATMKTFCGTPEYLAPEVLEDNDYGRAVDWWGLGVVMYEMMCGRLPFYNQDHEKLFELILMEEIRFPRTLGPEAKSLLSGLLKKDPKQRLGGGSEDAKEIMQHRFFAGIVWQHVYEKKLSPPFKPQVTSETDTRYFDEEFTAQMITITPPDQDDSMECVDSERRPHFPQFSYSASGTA
T3 sequence (P31751 whole entry): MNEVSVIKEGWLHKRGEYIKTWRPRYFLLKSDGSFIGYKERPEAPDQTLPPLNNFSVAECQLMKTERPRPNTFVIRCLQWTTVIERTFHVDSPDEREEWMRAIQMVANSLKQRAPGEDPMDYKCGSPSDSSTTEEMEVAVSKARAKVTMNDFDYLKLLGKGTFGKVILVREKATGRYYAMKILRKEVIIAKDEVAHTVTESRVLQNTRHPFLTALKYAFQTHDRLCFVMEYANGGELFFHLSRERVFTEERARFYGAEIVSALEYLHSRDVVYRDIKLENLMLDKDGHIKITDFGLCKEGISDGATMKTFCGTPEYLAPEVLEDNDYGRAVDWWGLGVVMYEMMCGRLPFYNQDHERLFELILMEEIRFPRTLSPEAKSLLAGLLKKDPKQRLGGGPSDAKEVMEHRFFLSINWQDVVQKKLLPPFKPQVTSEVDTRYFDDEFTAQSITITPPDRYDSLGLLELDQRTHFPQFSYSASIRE
T2 sequence (P31749 whole entry): as the sequence (P31749 whole entry E17K) above, with K17E counted along it

Row | pIC50 [1] | pIC50 (AKT1 E17K; [2]) | pIC50 (AKT1 WT; [2]) | pIC50 (AKT2; [2]) | pIC50 (AKT1 E17K; [3]) | pIC50 (AKT1 WT; [3]) | pIC50 (AKT2; [3]) | SMILES
1 | < 5.00 | < 6.00 | 6.70 | 5.55 |  |  |  | Nc1ncccc1-c1nc2ccc(-n3cccn3)nc2n1-c1ccc2c(c1)CC[C@@H]2NC(=O)Cc1ccncc1 [Compound 49, N-[(1S)-5-[2-(2-aminopyridin-3-yl)-5-(pyrazol-1-yl)imidazo[4,5-b]pyridin-3-yl]-2,3-dihydro-1H-inden-1-yl]-2-(pyridin-4-yl)acetamide]
2 | 5.42 |  |  |  | 6.18 | 7.82 | 6.10 | Nc1ncccc1-c1nc2ccc(-n3cccn3)nc2n1-c1ccc2c(c1)CC[C@@H]2NC1CN(c2ccccn2)C1 [Compound 439]
3 | 5.36 |  |  |  | 6.31 | 7.75 | 6.26 | Nc1ncccc1-c1nc2ccc(-n3ccc(OCCN4CCOCC4)n3)nc2n1-c1ccc2c(c1)CC[C@@H]2NC1CCN(C(=O)C2CC2)CC1 [Compound 505]
4 | 6.14 | 7.29 | 7.97 | 6.90 |  |  |  | Cc1cncc(C(=O)N[C@H]2CCc3cc(-n4c(-c5cccnc5N)nc5ccc(-n6cccn6)nc54)ccc32)c1 [Compound 30, (S)—N-(5-(2-(2-aminopyridin-3-yl)-5-(1H-pyrazol-1-yl)-3H-imidazo[4,5-b]pyridin-3-yl)-2,3-dihydro-1H-inden-1-yl)-5-methylnicotinamide]
5 | 5.58 | 6.80 | 8.33 | 6.74 |  |  |  | Nc1ncccc1-c1nc2ccc(-n3cccn3)nc2n1-c1ccc2c(c1)CC[C@@H]2NC(=O)c1ccnc(OC(F)(F)F)c1 [Compound 64, (S)—N-(5-(2-(2-aminopyridin-3-yl)-5-(1H-pyrazol-1-yl)-3H-imidazo[4,5-b]pyridin-3-yl)-2,3-dihydro-1H-inden-1-yl)-2-(trifluoromethoxy)isonicotinamide]
6 | 5.12 | < 6.00 | 6.68 | 5.33 |  |  |  | Nc1ncccc1-c1nc2ccc(-n3cccn3)nc2n1-c1ccc2c(c1)CC[C@@H]2NC1CCN(C(=O)c2ccccn2)CC1 [Compound 358]
7 | 5.90 | 7.50 | 7.95 | 7.17 |  |  |  | Nc1ncccc1-c1nc2ccc(-n3cccn3)nc2n1-c1ccc2c(c1)CC[C@@H]2NC(=O)c1ccc2[nH]cnc2c1 [Compound 22, (S)—N-(5-(2-(2-aminopyridin-3-yl)-5-(1H-pyrazol-1-yl)-3H-imidazo[4,5-b]pyridin-3-yl)-2,3-dihydro-1H-inden-1-yl)-1H-benzo[d]imidazole-5-carboxamide]
8 | 5.38 | 7.03 | 7.88 | 6.26 |  |  |  | Cc1ncc(F)cc1C(=O)N[C@H]1CCc2cc(-n3c(-c4cccnc4N)nc4ccc(-n5nccn5)nc43)ccc21 [Compound 382]
9 | 5.37 | 6.61 | 7.90 | 5.89 |  |  |  | Nc1ncccc1-c1nc2ccc(-n3nccn3)nc2n1-c1ccc2c(c1)CC[C@@H]2NC(=O)c1ccnc2occc12 [Compound 379]
10 | 5.05 | < 6.00 | 7.21 | 6.07 |  |  |  | Nc1ncccc1-c1nc2ccc(-n3cccn3)nc2n1-c1ccc2c(c1)CC[C@@H]2N [Example 2, (S)-3-(3-(1-amino-2,3-dihydro-1H-inden-5-yl)-5-(1H-pyrazol-1-yl)-3H-imidazo[4,5-b]pyridin-2-yl)pyridin-2-amine]
11 | 5.63 | 6.59 | 7.68 | 5.95 |  |  |  | COc1cc(C(=O)N[C@H]2CCc3cc(-n4c(-c5cccnc5N)nc5ccc(-n6nccn6)nc54)ccc32)cnc1C(F)F [Compound 364]
12 | < 5.00 |  |  |  | < 6.00 | 6.90 | 5.41 | Nc1ncccc1-c1nc2ccc(-n3cccn3)nc2n1-c1ccc2c(c1)CC[C@@H]2NC1CCN(S(=O)(=O)C2CC2)CC1 [Compound 393]
13 | < 5.00 | < 6.00 | 6.86 | 5.34 |  |  |  | Nc1ncccc1-c1nc2ccc(-n3cccn3)nc2n1-c1ccc2c(c1)CC[C@@H]2NC(=O)Cc1ccn[nH]1 [Compound 51, (S)—N-(5-(2-(2-aminopyridin-3-yl)-5-(1H-pyrazol-1-yl)-3H-imidazo[4,5-b]pyridin-3-yl)-2,3-dihydro-1H-inden-1-yl)-2-(1H-pyrazol-5-yl)acetamide]
14 | < 5.00 | < 6.00 | 7.28 | 5.97 |  |  |  | Nc1ncccc1-c1nc2ccc(-n3cccn3)nc2n1-c1ccc2c(c1)CC[C@@H]2NC(=O)c1ccnc2c1OCCO2 [Compound 356]
15 | 5.18 | 6.39 | 7.43 | 6.11 |  |  |  | Nc1ncccc1-c1nc2ccc(-n3cccn3)nc2n1-c1ccc2c(c1)CC[C@@H]2NC1CCN(c2cccnc2)CC1 [Compound 368]
16 | 5.65 | 6.59 | 7.71 | 6.99 |  |  |  | Nc1ncccc1-c1nc2ccc(-c3ccccc3)nc2n1-c1ccc2c(c1)CC[C@@H]2NC1CCN(C(=O)C2CC2)CC1 [Compound 391]
17 | 6.26 | 7.62 | 8.20 | 7.19 |  |  |  | Nc1ncccc1-c1nc2ccc(-n3cccn3)nc2n1-c1ccc2c(c1)CC[C@@H]2NC(=O)c1cccnc1 [Compound 34, N-[(1S)-5-[2-(2-aminopyridin-3-yl)-5-(pyrazol-1-yl)imidazo[4,5-b]pyridin-3-yl]-2,3-dihydro-1H-inden-1-yl]pyridine-3-carboxamide]
18 | 5.82 |  |  |  | 7.23 | 8.50 | 6.44 | COc1cc(C(=O)N[C@H]2CCc3cc(-n4c(-c5cccnc5N)nc5ccc(-n6nccn6)nc54)ccc32)cnn1 [Compound 426]
19 | 5.46 | 6.79 | 7.23 | 5.90 |  |  |  | Nc1ncccc1-c1nc2ccc(-n3cccn3)nc2n1-c1ccc2c(c1)CC[C@@H]2NC(=O)c1ccccn1 [Compound 36, N-[(1S)-5-[2-(2-aminopyridin-3-yl)-5-(pyrazol-1-yl)imidazo[4,5-b]pyridin-3-yl]-2,3-dihydro-1H-inden-1-yl]pyridine-2-carboxamide]
20 | < 5.00 | < 6.00 | 6.55 | 5.43 |  |  |  | Nc1ncccc1-c1nc2ccc(-n3cccn3)nc2n1-c1ccc2c(c1)CC[C@@H]2NC(=O)Cc1ccccn1 [Compound 50, (S)—N-(5-(2-(2-aminopyridin-3-yl)-5-(1H-pyrazol-1-yl)-3H-imidazo[4,5-b]pyridin-3-yl)-2,3-dihydro-1H-inden-1-yl)-2-(pyridin-2-yl)acetamide]
21 | 6.48 | 7.82 | 8.16 | 7.77 |  |  |  | Nc1ncccc1-c1nc2ccc(-n3cccn3)nc2n1-c1ccc2c(c1)CC[C@@H]2NC(=O)c1ccc(C2CC2)nc1 [Compound 46, N-[(1S)-5-[2-(2-aminopyridin-3-yl)-5-(pyrazol-1-yl)imidazo[4,5-b]pyridin-3-yl]-2,3-dihydro-1H-inden-1-yl]-6-cyclopropylpyridine-3-carboxamide]
22 | 5.28 | 6.80 | 7.99 | 6.52 |  |  |  | Nc1ncccc1-c1nc2ccc(-n3cccn3)nc2n1-c1ccc2c(c1)CC[C@@H]2NC(=O)c1cncnc1C(F)F [Compound 116]
23 | 5.20 | 6.63 | 7.26 | 6.07 |  |  |  | Cn1cc(C(=O)N[C@H]2CCc3cc(-n4c(-c5cccnc5N)nc5ccc(-n6cccn6)nc54)ccc32)ccc1=O [Compound 24, (S)—N-(5-(2-(2-aminopyridin-3-yl)-5-(1H-pyrazol-1-yl)-3H-imidazo[4,5-b]pyridin-3-yl)-2,3-dihydro-1H-inden-1-yl)-1-methyl-6-oxo-1,6-dihydropyridine-3-carboxamide]
24 | 5.84 | 7.78 | 8.08 | 6.56 |  |  |  | Nc1ncccc1-c1nc2ccc(-n3cccn3)nc2n1-c1ccc2c(c1)CC[C@@H]2NC(=O)c1ccc(O)c(C(F)(F)F)c1 [Compound 257]
25 | 6.29 | 7.47 | 8.56 | 8.15 |  |  |  | COc1cc(C(=O)N[C@H]2CCc3cc(-n4c(-c5cccnc5N)nc5ccc(-n6cccn6)nc54)ccc32)cc(C)n1 [Compound 280]
26 | 5.75 | 6.76 | 7.71 | 6.53 |  |  |  | Cc1cc(C(=O)N[C@H]2CCc3cc(-n4c(-c5cccnc5N)nc5ccc(-n6cccn6)nc54)ccc32)n[nH]1 [Compound 4, (S)—N-(5-(2-(2-aminopyridin-3-yl)-5-(1H-pyrazol-1-yl)-3H-imidazo[4,5-b]pyridin-3-yl)-2,3-dihydro-1H-inden-1-yl)-5-methyl-11H-pyrazole-3-carboxamide]
27 | 5.35 | 6.42 | 8.02 | 6.45 |  |  |  | Nc1ncccc1-c1nc2ccc(-n3cccn3)nc2n1-c1ccc2c(c1)CC[C@@H]2NC1CCN(c2ccccn2)C1 (stereo partly drawn) [Compound 387]
